Results published in the NIST ThermoML archive (doi:10.1016/j.jct.2015.11.008).

Tests used:
[1] = xn = mol fraction of the nth substance listed; details: 298.15 K, 101 kPa, Liquid; for mass density: Vibrating tube method
[2] = 298.15 K, 101.33 kPa, Liquid; for mass density: Vibrating tube method

CCCC[N+](C)(C)C.O=S(=O)([N-]S(=O)(=O)C(F)(F)F)C(F)(F)F [butyltrimethylammonium bis(trifluoromethylsulfonyl)imide] + O
viscosity [mPa·s], [1]
Details	x2 = 6e-05	x2 = 0.00494	x2 = 0.01002	x2 = 0.01995	x2 = 0.05012	x2 = 0.09979
Concentric cylinders viscometry	104	103.5	101.4	98.6	87.3	73
Falling or rolling sphere viscometry	105	103.6	102.8	99.6	88.2	73

[1]
Details	mass density [kg/m3]
x2 = 6e-05	1392.89
x2 = 0.00494	1392.7
x2 = 0.01002	1392.61
x2 = 0.01995	1392.23
x2 = 0.05012	1391.7
x2 = 0.09979	1390.15

CCCCn1cc[n+](C)c1.O=S(=O)([O-])C(F)(F)F [1-butyl-3-methylimidazolium trifluoromethanesulfonate] + O
viscosity [mPa·s], [1]
Details	x2 = 0.00022	x2 = 0.00612	x2 = 0.01	x2 = 0.01738	x2 = 0.04999	x2 = 0.1003
Concentric cylinders viscometry	90.7	89.2	88.2	86.2	79.7	70.4
Falling or rolling sphere viscometry	92.7	91.3	89.6	87.9	81.3	70.6

[1]
Details	mass density [kg/m3]
x2 = 0.00022	1298.32
x2 = 0.00612	1298.12
x2 = 0.01	1297.98
x2 = 0.01738	1297.72
x2 = 0.04999	1296.84
x2 = 0.1003	1295.4

CCCC[n+]1ccc(C)cc1.O=S(=O)([N-]S(=O)(=O)C(F)(F)F)C(F)(F)F
[2]
Details	viscosity [mPa·s]
Concentric cylinders viscometry	55.7
Falling or rolling sphere viscometry	56.1

Details	mass density [kg/m3]
[2]	1412.3

CCCC[n+]1ccn(C)c1.O=S(=O)([N-]S(=O)(=O)C(F)(F)F)C(F)(F)F
[2]
Details	viscosity [mPa·s]
Concentric cylinders viscometry	50.9
Falling or rolling sphere viscometry	51.5

Details	mass density [kg/m3]
[2]	1436.3

CCCCn1cc[n+](C)c1.F[B-](F)(F)F [1-butyl-3-methylimidazolium tetrafluoroborate] + O
viscosity [mPa·s], [1]
Details	x2 = 0.00062	x2 = 0.005	x2 = 0.00993	x2 = 0.01995	x2 = 0.04989	x2 = 0.09965
Concentric cylinders viscometry	108	105.9	103.7	99.5	87.9	71.4
Falling or rolling sphere viscometry	111.9	107.4	106.5	99.9	89.6	72.5

[1]
Details	mass density [kg/m3]
x2 = 0.00062	1201.69
x2 = 0.005	1201.55
x2 = 0.00993	1201.36
x2 = 0.01995	1201.1
x2 = 0.04989	1200.18
x2 = 0.09965	1198.59

CCCC[n+]1ccc(C)cc1.O=S(=O)([N-]S(=O)(=O)C(F)(F)F)C(F)(F)F + O
viscosity [mPa·s], [1]
Details	x2 = 0.00167	x2 = 0.00513	x2 = 0.01053	x2 = 0.01985	x2 = 0.04978	x2 = 0.1002
Concentric cylinders viscometry	55.7	55.3	54.8	53.9	50.4	45.6
Falling or rolling sphere viscometry	56.1	56	55.1	54.2	51.3	46

[1]
Details	mass density [kg/m3]
x2 = 0.00167	1412.27
x2 = 0.00513	1412.02
x2 = 0.01053	1411.94
x2 = 0.01985	1411.55
x2 = 0.04978	1410.48
x2 = 0.1002	1408.83

CCCC[n+]1ccn(C)c1.O=S(=O)([N-]S(=O)(=O)C(F)(F)F)C(F)(F)F + O
viscosity [mPa·s], [1]
Details	x2 = 0.00078	x2 = 0.00473	x2 = 0.0101	x2 = 0.01864	x2 = 0.05002	x2 = 0.1001
Concentric cylinders viscometry	50.9	50.6	49.9	49.3	45.9	41.7
Falling or rolling sphere viscometry	51.5	50.8	50.5	49.4	46.8	42.3

[1]
Details	mass density [kg/m3]
x2 = 0.00078	1436.26
x2 = 0.00473	1436.04
x2 = 0.0101	1435.89
x2 = 0.01864	1435.57
x2 = 0.05002	1434.5
x2 = 0.1001	1432.47

CCCCn1cc[n+](C)c1.O=S(=O)([O-])C(F)(F)F [1-butyl-3-methylimidazolium trifluoromethanesulfonate]
[2]
Details	viscosity [mPa·s]
Concentric cylinders viscometry	90.7
Falling or rolling sphere viscometry	92.8

Details	mass density [kg/m3]
[2]	1298.3

CCCCn1cc[n+](C)c1.F[B-](F)(F)F [1-butyl-3-methylimidazolium tetrafluoroborate]
[2]
Details	viscosity [mPa·s]
Concentric cylinders viscometry	108
Falling or rolling sphere viscometry	111.9

Details	mass density [kg/m3]
[2]	1201.7

CCCC[N+](C)(C)C.O=S(=O)([N-]S(=O)(=O)C(F)(F)F)C(F)(F)F [butyltrimethylammonium bis(trifluoromethylsulfonyl)imide]
[2]
Details	viscosity [mPa·s]
Concentric cylinders viscometry	104.9
Falling or rolling sphere viscometry	104

Details	mass density [kg/m3]
[2]	1392.9
